This note sets out measurements from patent US8367086B1, “Process and product for inhibiting or preventing bacterial infections” (S.S. Steiner, Inc., priority 2004, dated 2013).

Positions of bridges follow the written chain, without caps; N, C: chain ends. Non-standard residues stand in square brackets, D forms with d. Residues, ends and D or L forms follow the SMILES beside them. *: point of attachment. Ileψ(thiazoline)Cys = CC[C@H](C)[C@H](N)C1=N[C@H](C(=O)*)CS1; dOrn = NCCC[C@@H](N)C(=O)O

What all share (format): cell-based
The subject of assay [1] is Staphlococcus saprophyticus. Description: paper disc diffusion susceptibility (Kirby-Bauer) method. To be noted: for change of zone of inhibition when lupulone was added: Experiment 1, 0.2 μg/ml β-resin versus antibiotic alone; for zone of inhibition, Experiment 1 Control / zone of inhibition, Experiment 2 Control: antibiotic disc alone; for zone of inhibition, Experiment 1 Control / zone of inhibition, Experiment 2 Control / zone of inhibition, Experiment 1 0.2 μg/ml β-resin / zone of inhibition, Experiment 2 0.2 μg/ml β-resin: 24 hours; for zone of inhibition, Experiment 1 0.2 μg/ml β-resin / zone of inhibition, Experiment 2 0.2 μg/ml β-resin: antibiotic disc with 0.2 μg/ml β-resin in the agar; for zone of inhibition, Xanthohumol Avg / zone of inhibition, Xanthohumol Expt #1 / zone of inhibition, Xanthohumol Expt #2: S. saprophyticus, ciprofloxacin 5 μg on disc. An excerpt:
(§1) The first test method to be applied was the paper disc diffusion susceptibility method. In this method a filter paper disc impregnated with a chemical is placed on agar, and the chemical will diffuse from the disc into the agar. If an organism is placed on the agar, it will not grow in the area around the disc if it is susceptible to the chemical. This area of no growth around the disc is known as the zone of inhibition. This disc diffusion method for antibiotic susceptibility is known as the Kirby-Bauer method. In testing the effectiveness of various antibiotics, all factors, e.g., the agar utilized, the depth of the agar, the amount of organism used, and incubation conditions, are maintained constant for the various organisms and antibiotics being tested. […] The size of the zone of inhibition of the particular antimicrobial substance may also be influenced by the diffusion capability of that substance.
(§2) In performing the disc diffusion method tests, a bacterial suspension having an inoculum density of approximately 1×10^8 CFU/ml (colony forming units) was added to 10 ml trypticase soy agar at 46° C. It was mixed thoroughly by vortexing and then poured into a plastic Petri dish. After hardening of the agar, filter paper discs (φ7 mm.) made from Whatman filter paper No. 1 that had been impregnated by the manufacturer, Becton Dickinson, Inc., with the suitable antibiotic, were placed on the agar. In this series of tests the ability of each antibiotic per se to control the growth of the bacteria was measured.
(§3) Another series of agar containing Petri dishes was then prepared using the same bacteria and density thereof as had been prepared for the prior test series. However, here hop compounds were also present in the agar. The hop extract, either lupulone, humulone or xanthohumol, was dissolved in ethanol. While certain of the hop components are only slightly soluble in water, they are very soluble in ethanol. An ethanol control was prepared in the same way.
(§4) The size of the inhibition zones was measured to the nearest mm.
(§5) The concentration of β-acid and xanthohumol is set forth in μg/ml. The zone of inhibition was measured in centimeters. […]

For another assay, the system named is B. megaterium. The experiment in a line: paper disc diffusion susceptibility method. The settings on record: ciprofloxacin 5 μg on disc.
Description: as §1, §2, §3, §4, §5
A general note: A growth-free zone around the sample is the usual read-out of agar diffusion tests.

The next assay concerns S. salivarius. The experiment in a line: paper disc diffusion susceptibility method. The settings on record: ciprofloxacin 5 μg on disc.
Description: as §1, §2, §3, §4, §5

Another assay deals with B. subtilis. The experiment in a line: paper disc diffusion susceptibility method. To be noted: ciprofloxacin 5 μg on disc.
Description: as §1, §2, §3, §4, §5

On to `CC[C@H](C)[C@H](N)C1=N[C@H](C(=O)N[C@@H](CC(C)C)C(=O)N[C@H](CCC(=O)O)C(=O)N[C@H](C(=O)N[C@H]2CCCCNC(=O)[C@H](CC(N)=O)NC(=O)[C@@H](CC(=O)O)NC(=O)[C@H](Cc3cnc[nH]3)NC(=O)[C@@H](Cc3ccccc3)NC(=O)[C@H]([C@@H](C)CC)NC(=O)[C@@H](CCCN)NC2=O)[C@@H](C)CC)CS1` [BACITRACIN, bacitracin] ({Ileψ(thiazoline)Cys}-L[dE]IK[dOrn]I[dF]H[dD]N; lactam 4-C), for which, in assay [1], the “change of zone of inhibition when lupulone was added” value (from here on “change of zone of inhibition”) was “remained constant”; the “zone of inhibition, Experiment 1 Control” value was 0 mm; the “zone of inhibition, Experiment 2 Control” value is recorded as 0 mm; the “zone of inhibition, Experiment 1 0.2 μg/ml β-resin” value is listed as 0 mm. In addition, the “zone of inhibition, Experiment 2 0.2 μg/ml β-resin” value in assay [1] came out at 0 mm.
Consider `O=C(N[C@H](CO)[C@H](O)c1ccc([N+](=O)[O-])cc1)C(Cl)Cl` [CHLORAMPHENICOL, chloramphenicol], for which, in assay [1], the “change of zone of inhibition” value was “decline”; the “zone of inhibition, Experiment 1 Control” value stood at 29 mm; the “zone of inhibition, Experiment 2 Control” value came out at 25 mm; the “zone of inhibition, Experiment 1 0.2 μg/ml β-resin” value is listed as 27 mm. Besides, the “zone of inhibition, Experiment 2 0.2 μg/ml β-resin” value in assay [1] is 25 mm.
For `CC[C@H]1OC(=O)[C@H](C)[C@@H](O[C@H]2C[C@@](C)(OC)[C@@H](O)[C@H](C)O2)[C@H](C)[C@@H](O[C@@H]2O[C@H](C)C[C@H](N(C)C)[C@H]2O)[C@](C)(O)C[C@@H](C)C(=O)[C@H](C)[C@@H](O)[C@]1(C)O` [ERYTHROMYCIN, erythromycin], in assay [1], the “change of zone of inhibition” value is reported as “remained constant”; the “zone of inhibition, Experiment 1 Control” value worked out at 23 mm; the “zone of inhibition, Experiment 2 Control” value turned out to be 23 mm; the “zone of inhibition, Experiment 1 0.2 μg/ml β-resin” value worked out at 25 mm. The “zone of inhibition, Experiment 2 0.2 μg/ml β-resin” value in assay [1] was found to be 23 mm.
For the molecule `[H]/N=C(/N)N[C@H]1[C@H](O)[C@@H](O)[C@H](O[C@@H]2O[C@@H](C)[C@](O)(C=O)[C@H]2O[C@@H]2O[C@@H](CO)[C@H](O)[C@@H](O)[C@@H]2NC)[C@@H](N/C(N)=N\[H])[C@@H]1O` [STREPTOMYCIN, streptomycin], in assay [1], the “change of zone of inhibition” value was “remained constant”; the “zone of inhibition, Experiment 1 Control” value was determined as 15 mm; the “zone of inhibition, Experiment 2 Control” value worked out at 15 mm; the “zone of inhibition, Experiment 1 0.2 μg/ml β-resin” value turned out to be 15 mm. The “zone of inhibition, Experiment 2 0.2 μg/ml β-resin” value in assay [1] was determined as 14 mm.
For the molecule `O=C(O)c1cn(C2CC2)c2cc(N3CCNCC3)c(F)cc2c1=O` [ciprofloxacin, 1-cyclopropyl-6-fluoro-1,4-dihyro-4-oxo-7-(1-piperaznyl)-3-quinolinecarboxylic acid], the “zone of inhibition, Xanthohumol Avg” value in the assay with B. megaterium (xanthohumol 0 μg/ml) stood at 0.75 centimeters; with B. megaterium (xanthohumol 3 μg/ml) it was 1.75 centimeters; in the assay on S. salivarius (xanthohumol 0 μg/ml) it was 0.8 centimeters; with S. salivarius (xanthohumol 10 μg/ml), 2.0 centimeters; in the assay with B. subtilis (xanthohumol 0 μg/ml), 1.0 centimeters; in the assay on B. subtilis (xanthohumol 3 μg/ml), 1.85 centimeters. Further, the entries for the “zone of inhibition, Xanthohumol Avg” value in assay [1] (xanthohumol 0 μg/ml) and in assay [1] (xanthohumol 3 μg/ml) were 0.95 centimeters and 1.5 centimeters, respectively. Also, the “zone of inhibition, Xanthohumol Expt #1” value in the assay with B. megaterium (xanthohumol 0 μg/ml) was 0.8 centimeters; in the assay with B. megaterium (xanthohumol 3 μg/ml), 1.6 centimeters; in the assay with S. salivarius (xanthohumol 0 μg/ml) it was 0.8 centimeters; with S. salivarius (xanthohumol 10 μg/ml), 1.9 centimeters; with B. subtilis (xanthohumol 0 μg/ml), 1.1 centimeters; with B. subtilis (xanthohumol 3 μg/ml), 2.0 centimeters. For the same molecule, the entries for the “zone of inhibition, Xanthohumol Expt #1” value in assay [1] (xanthohumol 0 μg/ml) and in assay [1] (xanthohumol 3 μg/ml) were 0.9 centimeters and 1.3 centimeters, respectively. For the same molecule, the “zone of inhibition, Xanthohumol Expt #2” value with B. megaterium (xanthohumol 0 μg/ml) is given as 0.7 centimeters; with B. megaterium (xanthohumol 3 μg/ml) it was 1.9 centimeters; in the assay on S. salivarius (xanthohumol 0 μg/ml), 0.8 centimeters; in the assay on S. salivarius (xanthohumol 10 μg/ml), 2.1 centimeters; with B. subtilis (xanthohumol 0 μg/ml) it was 0.9 centimeters; in the assay with B. subtilis (xanthohumol 3 μg/ml), 1.7 centimeters. Moreover, the “zone of inhibition, Xanthohumol Expt #2” value in assay [1] (xanthohumol 0 μg/ml) is reported as 1.0 centimeters; in assay [1] (xanthohumol 3 μg/ml) it was 1.7 centimeters.
Take neomycin: in assay [1], the “zone of inhibition, Experiment 1 Control” value is 23 mm; the “zone of inhibition, Experiment 2 Control” value is on record as 26 mm; the “zone of inhibition, Experiment 1 0.2 μg/ml β-resin” value is on record as 25 mm; the “zone of inhibition, Experiment 2 0.2 μg/ml β-resin” value is given as 24 mm.
For the molecule penicillin, in assay [1], the “change of zone of inhibition” value is given as “decline”; the “zone of inhibition, Experiment 1 Control” value was 41 mm; the “zone of inhibition, Experiment 2 Control” value turned out to be 37 mm; the “zone of inhibition, Experiment 1 0.2 μg/ml β-resin” value is given as 39 mm. The “zone of inhibition, Experiment 2 0.2 μg/ml β-resin” value in assay [1] turned out to be 35 mm.
